Values after ≈ are worked out from the molar mass of the structure shown.

The target of data set [1] is T1, G-protein coupled bile acid receptor 1 (Mus musculus, UniProt Q80SS6).
T1 sequence (Q80SS6 whole entry): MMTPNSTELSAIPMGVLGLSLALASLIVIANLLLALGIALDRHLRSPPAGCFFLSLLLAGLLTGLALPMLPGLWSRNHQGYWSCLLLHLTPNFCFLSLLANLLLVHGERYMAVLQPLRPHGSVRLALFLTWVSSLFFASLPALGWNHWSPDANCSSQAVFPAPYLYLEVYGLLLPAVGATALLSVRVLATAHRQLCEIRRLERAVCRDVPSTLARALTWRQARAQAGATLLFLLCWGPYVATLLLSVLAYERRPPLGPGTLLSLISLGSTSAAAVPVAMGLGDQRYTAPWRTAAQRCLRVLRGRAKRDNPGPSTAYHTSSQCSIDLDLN
In words: Agonist activity at mouse TGR5.

The target of data set [2] is T2, G-protein coupled bile acid receptor 1 (Homo sapiens, UniProt Q8TDU6).
T2 sequence (Q8TDU6 whole entry): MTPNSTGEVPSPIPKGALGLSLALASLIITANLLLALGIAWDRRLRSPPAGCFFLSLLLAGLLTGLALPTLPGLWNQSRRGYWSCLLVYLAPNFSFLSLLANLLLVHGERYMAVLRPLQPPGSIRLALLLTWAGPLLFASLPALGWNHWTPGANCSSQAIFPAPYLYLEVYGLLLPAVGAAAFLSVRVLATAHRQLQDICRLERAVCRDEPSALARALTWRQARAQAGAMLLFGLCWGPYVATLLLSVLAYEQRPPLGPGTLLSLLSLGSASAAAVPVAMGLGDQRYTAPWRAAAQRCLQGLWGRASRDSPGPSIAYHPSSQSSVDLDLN
The data set can be described thus: Agonist activity at TGR5 in human HEK293 cells assessed as increase in cAMP production. The class given is cell-based. On the technique in general: Changes in cAMP serve as a functional read-out for many G protein-coupled receptors.

A short description of data set [3]: Aqueous solubility of compound. The class given is physicochemical. The note with it: buffer.
Data set [4] deals with T3, G-protein coupled bile acid receptor 1 (Homo sapiens) (UniProt Q8TDU6).
T3 sequence (whole entry): T2 sequence (Q8TDU6 whole entry)
The data set can be described thus: Agonist activity at human TGR5 expressed in human HEK293 cells at 20 uM measured after 5.5 hrs by steady-glo luciferase assay relative to control. It counts as cell-based. The note with it: filed as agonist.

Data set [5] deals with T2, G-protein coupled bile acid receptor 1. The data set can be described thus: Agonist activity at human TGR5 expressed in human HEK293 cells measured after 5.5 hrs by steady-glo luciferase assay. The class given is cell-based.
For data set [6], the target named is T3, G-protein coupled bile acid receptor 1 (Homo sapiens). In words: Agonist activity at human TGR5 transfected in CHO cells assessed as increase in cAMP production at 1 uM relative to control. It counts as cell-based. Conditions: filed as agonist.
Data set [7] concerns the target T2, G-protein coupled bile acid receptor 1. The data set can be described thus: Agonist activity at human TGR5 transfected in CHO cells assessed as increase in cAMP production. It counts as cell-based.
Data set [8] deals with T4, Bile acid receptor (Homo sapiens, UniProt Q96RI1).
T4 sequence (Q96RI1 whole entry): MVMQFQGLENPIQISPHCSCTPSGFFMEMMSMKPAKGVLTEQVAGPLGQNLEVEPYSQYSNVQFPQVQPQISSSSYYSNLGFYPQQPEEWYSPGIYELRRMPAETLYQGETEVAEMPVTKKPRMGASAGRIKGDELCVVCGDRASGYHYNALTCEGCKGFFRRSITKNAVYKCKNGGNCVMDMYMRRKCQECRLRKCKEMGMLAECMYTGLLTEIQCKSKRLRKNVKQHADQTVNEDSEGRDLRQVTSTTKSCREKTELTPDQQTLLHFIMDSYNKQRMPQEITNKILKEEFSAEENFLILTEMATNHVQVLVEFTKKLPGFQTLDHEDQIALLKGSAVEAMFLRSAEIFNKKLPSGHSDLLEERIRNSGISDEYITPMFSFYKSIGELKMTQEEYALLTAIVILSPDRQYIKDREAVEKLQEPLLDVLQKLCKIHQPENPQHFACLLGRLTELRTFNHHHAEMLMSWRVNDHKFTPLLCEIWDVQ
The data set can be described thus: Agonist activity at FXR (unknown origin).

Data set [9] addresses T4, Bile acid receptor. The data set can be described thus: Antagonist activity at FXR in human HepG2 cells in presence of CDCA by luciferase reporter assay. The class given is cell-based. (In general: A reporter such as luciferase makes a cellular process visible.)
Data set [10] concerns the target T3, G-protein coupled bile acid receptor 1 (Homo sapiens). The data set can be described thus: Agonist activity at human TGR5 transfected in CHO cells assessed as increase in cAMP production at 100 nM relative to control. The class given is cell-based. Conditions: filed as agonist.
Data set [11] has as its target T2, G-protein coupled bile acid receptor 1. In words: Agonist activity at human TGR5.
Data set [12] deals with T4, Bile acid receptor. The data set can be described thus: Antagonist activity at FXR (unknown origin) by HTFR assay.
A short description of data set [13]: Clearance in mouse liver microsomes. The class given is ADME, Microsome. The note with it: liver microsomes, read-out: CLH.
Data set [14] in a line: Clearance in human liver microsomes. It counts as ADME, Microsome. The note with it: liver microsomes, read-out: CLH. A general note: Liver microsomes are a subcellular fraction often used to study metabolism.
For data set [15], the target named is T4, Bile acid receptor. The data set can be described thus: Agonist activity at human GST-tagged FXR LBD (193 to 472 residues) by FRET assay.

In the case of `O=C(c1cccnc1Oc1cccc(C(F)(F)F)c1)N1CCCc2ccccc21`, the EC50 in data set [1] came out at 2020 nM.

Turning to `Cc1noc2cc(Cl)c(Oc3ccncc3C(=O)N3CCN(C4CC4)c4ccccc43)cc12`, in [2], the EC50 was 0.43 nM.

Turning to `O=C(c1cccnc1Oc1cc(Cl)ccc1Cl)N1CCN(C2COC2)c2ccccc21`, in data set [3], the solubility (commonly the dissolved amount per volume that the medium holds) worked out at 14 µg/mL (≈ 30.7 µM).

With `Fc1ccccc1-c1ccncc1CN1C(c2ccco2)=NOC1c1cc(C(F)(F)F)cc(C(F)(F)F)c1Cl` (centres undefined), in [4], the Activity is 90%. In addition, in [5], the EC50 came to 5.6 nM.

`O=c1c2nccnc2nc(-c2ccc(F)cc2)n1CCc1ccc(Cl)cc1`: the EC50 in [2] was under 10000 nM.

Regarding `Fc1cccc(F)c1-c1ccncc1CN1C(c2ccco2)=NO[C@@H]1c1cc(C(F)(F)F)cc(C(F)(F)F)c1Cl`, the Activity in [4] came out at 96%. The same compound yielded an EC50 in data set [5] of 1.4 nM.

Take `O=C(c1cc(C(F)(F)F)cc(C(F)(F)F)c1)N1CCOc2nccc(-c3ccccc3)c2C1`: the Activity in data set [6] was determined as 100%.

Consider `Cc1ccccc1[C@H](C/C(=N/O)c1ccc(=O)n(C)n1)c1ccc(Br)cc1`, for which, in data set [7], the EC50 amounted to 6 nM.

For `O=C(Nc1cc(Cl)ccc1-c1nc2cc(F)c(F)cc2n1CC1CCCCC1)c1ccc(-c2nnn[nH]2)cc1F`, the IC50 (commonly the concentration that inhibits the measured activity by half) in data set [8] is 0.4 nM.

`Fc1ccccc1-c1ccncc1CN1C(c2ccccc2)=NOC1c1cc(C(F)(F)F)cc(C(F)(F)F)c1` (centres undefined) yielded an Activity in [4] of 93%. This compound returned an EC50 in data set [5] of 79 nM.

`C=C1[C@@H](O)CC[C@]2(C)C3CC[C@@]4(C)C(=C3CC[C@@H]12)CC[C@@H]4[C@H](C)CC[C@H](CC)C(C)C` (some centres undefined): in data set [9], the IC50 was 40000 nM.

As for `CO[C@H](c1ccccc1)c1nc2cc(F)c(F)cc2n1C(C(=O)Nc1ccc(C(=O)O)cc1C)C1CCCCC1` (some centres undefined), in [8], the IC50 came to 20 nM.

Regarding `COc1ccc(C(C)(C)c2nnc(SCCOc3ccc(-n4cnc(-c5ccsc5)c4)cc3)n2-c2ccc(F)cc2)cc1OC`, the Activity in data set [10] came out at 147%.

`Brc1ccc(CCNCc2cc3ccncc3nc2-c2ccsc2)cc1`: the EC50 in [2] is under 10000 nM.

Turning to `CC(C)n1ncc2cc(CNCc3ccc(C(F)(F)F)cc3)c(-c3ccsc3)cc21`, the EC50 in data set [2] was under 10000 nM.

In the case of `COc1ccc(S(=O)(=O)N2CCCN(S(=O)(=O)c3ccc(OC)c(OC)c3)CC2)cc1OC` [SB-756050], in data set [11] (read-out: pEC50 (converted)), the EC50 is 1000 nM.

In the case of `O=C(O)c1ccccc1-c1ccc(Cn2ccc(OCc3c(-c4c(Cl)cccc4Cl)noc3-c3cccs3)n2)cc1`, in data set [12], the IC50 is 4200 nM.

For the compound `O=C(Nc1nnn[nH]1)c1cc(Cl)c(Oc2ncccc2C(=O)N2CCN(C3CC3)c3ccccc32)cc1Cl`, the microsomal CLint in [13] and in [14] was 56 µL/min/mg each time. Further, the EC50 is 350 nM in data set [1] and 76 nM in data set [11] (read-out: EC50). This compound also displayed a solubility in data set [3] of 535 µg/mL (≈ 970 µM).

For `FC(F)(F)c1ccc(CNCc2cc3ccsc3nc2-c2ccsc2)cc1`, the EC50 in [2] is under 10000 nM.

`O=C(O)c1ccc2cc(N3C4CCC3CC(OCc3c(-c5ccccc5OC(F)(F)F)noc3C3CC3)C4)ccc2c1` (centres undefined): the EC50 in data set [15] was found to be 1 nM.

Consider `Cc1ccccc1[C@H](C/C(=N/O)C1CCC(=O)N(C)C1)c1ccc(S(C)(=O)=O)cc1` (some centres undefined), for which the EC50 in data set [7] is 29 nM.

Take `COc1cc(F)ccc1-c1ccncc1N(C)C(=O)c1cc(C(F)(F)F)cc(S(=O)(=O)N2CC3(COC3)C2)c1`: in data set [7], the EC50 was determined as 9 nM.
